From the OligoGym collection
Where “and” joins values, the source holds several entries; their conditions need not be identical. Identical values can stand only once. After the bases stand the sugars from the 5' end (letter, count) and the backbone: PS all phosphorothioate, else s phosphorothioate and o phosphodiester by linkage. Methylation of C is not given here. e = 2'-O-(2-methoxyethyl) (MOE); k = constrained ethyl (cEt); d = 2'-deoxy (DNA)

Biological target: IRF4
Settings: ASO

Sequence | target mRNA inhibition (MM.1R, 1 µM) | target mRNA inhibition (SK-MEL-28, 4 µM) | other results
GTGTTCCAGGAGATAT (sugars k3 d10 k3, PS) | 30% |  | 
GTTAAAGCAGCATAAT (sugars k3 d10 k3, PS) |  | 27% | 
GTTAAGTACTTGGACA (sugars k3 d10 k3, PS) |  | 32% | 
GTTAATAATGCTTGCA (sugars k3 d10 k3, PS) |  | 2% | 
GTTACCGCATTGCTAG (sugars k3 d10 k3, PS) | 16% |  | 
GTTACTAATTCCATAG (sugars k3 d10 k3, PS) |  | 49% | 
GTTCAAAGCGCACCGC (sugars k3 d10 k3, PS) |  | 65% | 
GTTCATACCCAATAGT (sugars k3 d10 k3, PS) |  | 66% | 
GTTCATATCACAGAGC (sugars k3 d10 k3, PS) |  | 45% | 
GTTCCTGTCACCTGGC (sugars k4 d8 k4, PS) |  | 12% | 
GTTCTCTACTGTTTGT (sugars k3 d10 k3, PS) |  | 68% | 
GTTGCATAGGCATCCT (sugars k3 d10 k3, PS) | 27% |  | 
GTTGCATGGCTAATGA (sugars k3 d10 k3, PS) |  | 61% | 
GTTGCCGAGATATAAA (sugars k3 d10 k3, PS) | 13% |  | 
GTTGGCTGGTCTTTGT (sugars k3 d10 k3, PS) | 63% |  | 
GTTGGCTGGTCTTTGT (sugars kdddddddddkekeke, PS) | 18% |  | 
GTTGGCTGGTCTTTGT (sugars kkdddddddddkekek, PS) | 62% |  | 
GTTGTAAATGAGTCGG (sugars e1 k2 d9 k2 e2, PS) | 69% |  | target mRNA inhibition (MM.1R, 0.074 µM): 17%; target mRNA inhibition (MM.1R, 0.222 µM): 38%; target mRNA inhibition (MM.1R, 0.666 µM): 57%; target mRNA inhibition (MM.1R, 2 µM): 79%
GTTGTACAGGACAGGT (sugars k3 d10 k3, PS) | 33% |  | 
GTTGTAGTCCTGCTTG (sugars k3 d10 k3, PS) |  | 22% | 
GTTGTCTGGCTAGCAG (sugars k3 d10 k3, PS) |  | 59% | target mRNA inhibition (SK-MEL-28, 0.185 µM): 20%; target mRNA inhibition (SK-MEL-28, 5 µM): 70%; target mRNA inhibition (SK-MEL-28, 15 µM): 89%
GTTTACACTGGATCTG (sugars k3 d10 k3, PS) |  | 61% | 
GTTTACTAACTGGCTT (sugars k3 d10 k3, PS) |  | 27% | 
TAAAAGGTTCCTGTCA (sugars k4 d8 k4, PS) |  | 43% | 
TAAAGAGCGCATTTCA (sugars k3 d10 k3, PS) |  | 41% | 

Sequence | target mRNA inhibition (MM.1R, 1 µM) | target mRNA inhibition (SK-MEL-28, 4 µM) | other results
TAAAGATGCCAGAGGG (sugars k3 d10 k3, PS) |  | 39% | 
TAAATCACCCTGGTCA (sugars k3 d10 k3, PS) |  | 22% | 
TAACAAGTTATCCAGT (sugars k3 d10 k3, PS) |  | 12% | 
TAACAATACTGTAAGG (sugars k3 d10 k3, PS) |  | 45% | 
TAACACGGTGTTGACA (sugars k3 d10 k3, PS) |  | 35% | 
TAACTTCTCCTGTGCA (sugars k3 d10 k3, PS) | 15% |  | 
TAATATAGTTGTCTGG (sugars k3 d10 k3, PS) |  | 40% | 
TAATTTTAAGGCCCTG (sugars k3 d10 k3, PS) |  | 39% | 
TACAGGACAGGTAAAG (sugars k3 d10 k3, PS) | -29% |  | 
TACATGGCAGTGGAGC (sugars k3 d10 k3, PS) |  | 71% | 
TACATTCACACTGCCG (sugars k3 d10 k3, PS) |  | 50% and 58% | target mRNA inhibition (MM.1R, 0.074 µM): -3%; target mRNA inhibition (MM.1R, 0.222 µM): 2%; target mRNA inhibition (MM.1R, 0.666 µM): 15%; target mRNA inhibition (MM.1R, 2 µM): 9%
TACCCTGGATCACTCA (sugars k3 d10 k3, PS) |  | 65% | 
TACCGATGCTTCAAGA (sugars k3 d10 k3, PS) | -3% |  | 
TACCTCAGTTTGTGAA (sugars k3 d10 k3, PS) | 11% |  | 
TACGACAACTTTCCTG (sugars k3 d10 k3, PS) |  | 41% | 
TACTAACTGGCTTCCA (sugars k3 d10 k3, PS) |  | 28% | 
TACTAGGTGCTTGTTG (sugars k3 d10 k3, PS) |  | 49% | 
TACTGCTTGAGGTTTT (sugars kddddddddddkekek, PS) | 24% |  | 
TACTGTTACCGATGCT (sugars k3 d10 k3, PS) | 37% and 18% |  | target mRNA inhibition (MM.1R, 0.0625 µM): -6%; target mRNA inhibition (MM.1R, 0.25 µM): -4%; target mRNA inhibition (MM.1R, 4 µM): 38%
TACTGTTACCGATGCT (sugars kdddddddddkekeke, PS) | 18% |  | 
TACTGTTACCGATGCT (sugars kkdddddddddkekek, PS) | 9% and 27% |  | 
TAGAAAGAGCTGGTAG (sugars k3 d10 k3, PS) |  | 9% | 
TAGAAGCCCACAAGAA (sugars k3 d10 k3, PS) |  | 1% | 
TAGCAAATGGCAAGTT (sugars k3 d10 k3, PS) |  | 17% | 
